Reference: patent US10131652B2, “Pyrimidinyloxy benzene derivatives as herbicides” (E. I. DU PONT DE NEMOURS AND COMPANY, priority 2014, dated 2018)

Columns and labels:
Assay type in all cases: in vivo
[1] = tested on: blackgrass (Alopecurus myosuroides); experiment: Test D pre-/postemergence plant response
Excerpt: (§1) Seeds of plant species selected from blackgrass (Alopecurus myosuroides), Italian ryegrass (Lolium multiflorum), winter wheat (Triticum aestivum), galium (catchweed bedstraw, Galium aparine), corn (Zea mays), large (Lg) crabgrass (Digitaria sanguinalis), giant foxtail (Setaria faberii), johnsongrass (Sorghum halepense), lambsquarters (Chenopodium album), morningglory (Ipomoea coccinea), yellow nutsedge (Cyperus esculentus), pigweed (Amaranthus retroflexus), ragweed (common ragweed, Ambrosia elatior), soybean (Glycine max), bamyardgrass (Echinochloa crus-galli), oilseed rape (Brassica napus), waterhemp (common waterhemp, Amaranthus rudis), and velvetleaf (Abutilon theophrasti) were planted into a blend of loam soil and sand and treated preemergence with test chemicals formulated in a non-phytotoxic solvent mixture which included a surfactant. At the same time, plants selected from these crop and weed species and also kochia (Kochia scoparia), wild oat (Avena fatua), and chickweed (common chickweed, Stellaria media) were planted in pots containing Redi-Earth® planting medium (Scotts Company, 14111 Scottslawn Road, Marysville, Ohio 43041) comprising spaghnum peat moss, vermiculite, wetting agent and starter nutrients and treated with postemergence applications of test chemicals formulated in the same manner. Plants ranged in height from 2 to 18 cm (1- to 4-leaf stage) for postemergence treatments. Treated plants and controls were maintained in a greenhouse for 13 to 15 days, after which time all species were compared to controls and visually evaluated. Plant response ratings, summarized in Table D, are based on a scale of 0 to 100 where 0 is no effect and 100 is complete control. A dash (-) response means no test result.

[2] = tested on: winter wheat (Triticum aestivum); experiment: Test D pre-/postemergence plant response
Excerpt: as §1

[3] = tested on: galium (catchweed bedstraw, Galium aparine); experiment: Test D pre-/postemergence plant response
Excerpt: as §1

[4] = tested on: johnsongrass (Sorghum halepense); experiment: Test D pre-/postemergence plant response
Excerpt: as §1

[5] = tested on: large (Lg) crabgrass (Digitaria sanguinalis); experiment: Test D pre-/postemergence plant response
Excerpt: as §1

[6] = tested on: lambsquarters (Chenopodium album); experiment: Test D pre-/postemergence plant response
Excerpt: as §1

[7] = tested on: velvetleaf (Abutilon theophrasti); experiment: Test D pre-/postemergence plant response
Excerpt: as §1

[8] = tested on: giant foxtail (Setaria faberii); experiment: Test B pre-/postemergence plant response; details: 1000 g ai/ha, 0 to 100 scale (0 no effect, 100 complete control)
Procedure, shortened: (§2)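 Greenhouse pots, loam/sand soil; compound formulated with surfactant in non-phytotoxic solvent. Preemergence soil spray and postemergence spray at 1–2 leaf stage run simultaneously. Visual injury, 0–100, about 10 days post-treatment.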

[9] = tested on: pigweed (Amaranthus retroflexus); experiment: Test B pre-/postemergence plant response; details: 1000 g ai/ha, 0 to 100 scale (0 no effect, 100 complete control)
Procedure, shortened: as §2

[10] = tested on: barnyardgrass (Echinochloa crus-galli); experiment: Test B pre-/postemergence plant response; details: 1000 g ai/ha, 0 to 100 scale (0 no effect, 100 complete control)
Procedure, shortened: as §2

corn (Zea mays) = experiment: Test B pre-/postemergence plant response; details: Postemergence, 1000 g ai/ha; 0 to 100 scale (0 no effect, 100 complete control)
Procedure, shortened: as §2

[11] = tested on: wheat (Triticum aestivum); experiment: Test B pre-/postemergence plant response; details: Postemergence, 1000 g ai/ha; 0 to 100 scale (0 no effect, 100 complete control)
Procedure, shortened: as §2

[12] = tested on: small-flower umbrella sedge (Cyperus difformis); experiment: Test C flooded paddy test plant response; details: Flood, 250 g ai/ha; scale of 0 to 100 where 0 is no effect and 100 is complete control; 13 to 15 days
Procedure, shortened: (§3)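 Scored visually on a 0–100 scale (100 = complete control) against untreated plants 13 to 15 days after treatment in the greenhouse. Compounds went into paddy water of pots flooded to 3 cm, holding 2-leaf-stage plants.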

rice (Oryza sativa) = experiment: Test C flooded paddy test plant response; details: Flood, 250 g ai/ha; scale of 0 to 100 where 0 is no effect and 100 is complete control; 13 to 15 days
Procedure, shortened: as §3

[13] = tested on: ducksalad (Heteranthera limosa); experiment: Test C flooded paddy test plant response; details: Flood, 250 g ai/ha; scale of 0 to 100 where 0 is no effect and 100 is complete control; 13 to 15 days
Procedure, shortened: as §3

[14] = tested on: barnyardgrass (Echinochloa crus-galli); experiment: Test C flooded paddy test plant response; details: Flood, 250 g ai/ha; scale of 0 to 100 where 0 is no effect and 100 is complete control; 13 to 15 days
Procedure, shortened: as §3

[15] = Postemergence, 16 g ai/ha, scale 0 to 100 (0 no effect, 100 complete control)
[16] = Postemergence, 31 g ai/ha, scale 0 to 100 (0 no effect, 100 complete control)
[17] = Postemergence, 62 g ai/ha, scale 0 to 100, 0 no effect, 100 complete control
[18] = Postemergence, 125 g ai/ha, scale 0 to 100, 0 no effect, 100 complete control
[19] = Preemergence, 16 g ai/ha, scale 0 to 100 (0 no effect, 100 complete control)
[20] = Preemergence, 31 g ai/ha, scale 0 to 100 (0 no effect, 100 complete control)
[21] = Preemergence, 62 g ai/ha, scale 0 to 100 (0 no effect, 100 complete control)

FCc1cc(-c2c(F)cccc2Oc2ncc(Cl)cn2)no1 [Compound 57]
Blackgrass plant response rating [1, 15]: 0
Blackgrass plant response rating [1, 16]: 0
Plant response rating, Blackgrass [1, 17]: 0
Plant response rating, Blackgrass [1, 18]: 15
Plant response rating (scale 0 to 100), Blackgrass ([1]; Preemergence, 125 g ai/ha): 60
Plant response rating, Blackgrass [1, 19]: 5
Plant response rating, Blackgrass [1, 20]: 5
Plant response rating, Blackgrass [1, 21]: 50
Wheat plant response rating [2, 15]: 0
Wheat plant response rating [2, 16]: 5
Plant response rating, Wheat [2, 17]: 15
Plant response rating, Wheat [2, 18]: 20
Plant response rating (scale 0 to 100), Wheat ([2]; Preemergence, 125 g ai/ha): 5
Plant response rating, Wheat [2, 19]: 0
Plant response rating, Wheat [2, 20]: 0
Plant response rating, Wheat [2, 21]: 0
Galium plant response rating [3, 15]: 40
Galium plant response rating [3, 16]: 50
Plant response rating, Galium [3, 17]: 65
Plant response rating, Galium [3, 18]: 95
Plant response rating (scale 0 to 100), Galium ([3]; Preemergence, 125 g ai/ha): 90
Plant response rating, Galium [3, 19]: 80
Plant response rating, Galium [3, 20]: 70
Plant response rating, Galium [3, 21]: 90
Johnsongrass plant response rating [4, 15]: 0
Johnsongrass plant response rating [4, 16]: 0
Plant response rating, Johnsongrass [4, 17]: 5
Plant response rating, Johnsongrass [4, 18]: 5
Plant response rating (scale 0 to 100), Johnsongrass ([4]; Preemergence, 125 g ai/ha): 80
Plant response rating, Johnsongrass [4, 19]: 0
Plant response rating, Johnsongrass [4, 20]: 10
Plant response rating, Johnsongrass [4, 21]: 40
Crabgrass, Large plant response rating [5, 15]: 5
Crabgrass, Large plant response rating [5, 16]: 5
Plant response rating, Crabgrass, Large [5, 17]: 10
Plant response rating, Crabgrass, Large [5, 18]: 10
Plant response rating (scale 0 to 100), Crabgrass, Large ([5]; Preemergence, 125 g ai/ha): 100
Plant response rating, Crabgrass, Large [5, 19]: 75
Plant response rating, Crabgrass, Large [5, 20]: 85
Plant response rating, Crabgrass, Large [5, 21]: 100
Lambsquarters plant response rating [6, 15]: 60
Lambsquarters plant response rating [6, 16]: 40
Plant response rating, Lambsquarters [6, 17]: 70
Plant response rating, Lambsquarters [6, 18]: 80
Plant response rating (scale 0 to 100), Lambsquarters ([6]; Preemergence, 125 g ai/ha): 100
Plant response rating, Lambsquarters [6, 19]: 80
Plant response rating, Lambsquarters [6, 20]: 100
Plant response rating, Lambsquarters [6, 21]: 100
Velvetleaf plant response rating [7, 15]: 10
Velvetleaf plant response rating [7, 16]: 50
Plant response rating, Velvetleaf [7, 17]: 70
Plant response rating, Velvetleaf [7, 18]: 80
Plant response rating (scale 0 to 100), Velvetleaf ([7]; Preemergence, 125 g ai/ha): 100
Plant response rating, Velvetleaf [7, 19]: 100
Plant response rating, Velvetleaf [7, 20]: 100
Plant response rating, Velvetleaf [7, 21]: 100
Plant response rating, Foxtail, Giant ([8]; Postemergence): 100
Plant response rating, Foxtail, Giant ([8]; Preemergence): 100
Plant response rating, Pigweed ([9]; Postemergence): 100
Plant response rating, Pigweed ([9]; Preemergence): 90
Plant response rating, Barnyardgrass ([10]; Postemergence): 100
Plant response rating, Barnyardgrass ([10]; Preemergence): 100
Plant response rating, Corn (corn (Zea mays)): 90
Plant response rating, Wheat [11]: 90
Sedge, Umbrella plant response rating [12]: 75
Rice plant response rating (rice (Oryza sativa)): 0
Ducksalad plant response rating [13]: 90
Barnyardgrass plant response rating [14]: 0
